# Measurements: ChEMBL document CHEMBL1152441, “Discovery of [18F]N-(2-(diethylamino)ethyl)-6-fluoronicotinamide: a melanoma positron emission tomography imaging radiotracer with high tumor to body contrast ratio and rapid renal clearance” (J Med Chem, 2009)
# Key:
# Lung [1] = test: Biodistribution in lung of mouse B16F0 cells implanted C57BL/6J mouse assessed per gram of tissue at 0.4 to 5.5 MBq, iv after 1 hr by gamma counter; type: ADME, organism-based; conditions: in vivo
# Spleen [2] = test: Biodistribution in spleen of mouse B16F0 cells implanted C57BL/6J mouse assessed per gram of tissue at 0.4 to 5.5 MBq, iv after 6 hrs by gamma counter; type: ADME, organism-based; conditions: in vivo
# Stomach [3] = test: Biodistribution in stomach of mouse B16F0 cells implanted C57BL/6J mouse assessed per gram of tissue at 0.4 to 5.5 MBq, iv after 1 hr by gamma counter; type: ADME, organism-based; conditions: in vivo
# Stomach [4] = test: Biodistribution in stomach of mouse B16F0 cells implanted C57BL/6J mouse assessed per gram of tissue at 0.4 to 5.5 MBq, iv after 3 hrs by gamma counter; type: ADME, organism-based; conditions: in vivo
# Lung [5] = test: Biodistribution in lung of mouse B16F0 cells implanted C57BL/6J mouse assessed per gram of tissue at 0.4 to 5.5 MBq, iv after 3 hrs by gamma counter; type: ADME, organism-based; conditions: in vivo
# Thyroid gland [6] = test: Biodistribution in thyroid of mouse B16F0 cells implanted C57BL/6J mouse assessed per gram of tissue at 0.4 to 5.5 MBq, iv after 6 hrs by gamma counter; type: ADME, organism-based; conditions: in vivo
# Bone [7] = test: Biodistribution in bone of mouse B16F0 cells implanted C57BL/6J mouse assessed per gram of tissue at 0.4 to 5.5 MBq, iv after 1 hr by gamma counter; type: ADME, organism-based, Bone element; conditions: in vivo
# Spleen [8] = test: Biodistribution in spleen of mouse B16F0 cells implanted C57BL/6J mouse assessed per gram of tissue at 0.4 to 5.5 MBq, iv after 0.25 hrs by gamma counter; type: ADME, organism-based; conditions: in vivo
# [9] = Biodistribution in eye of mouse B16F0 cells implanted C57BL/6J mouse assessed per gram of tissue at 0.4 to 5.5 MBq, iv after 0.25 hrs by gamma counter; type: ADME, organism-based; conditions: in vivo
# Spleen [10] = test: Biodistribution in spleen of mouse B16F0 cells implanted C57BL/6J mouse assessed per gram of tissue at 0.4 to 5.5 MBq, iv after 1 hr by gamma counter; type: ADME, organism-based; conditions: in vivo
# Thyroid gland [11] = test: Biodistribution in thyroid of mouse B16F0 cells implanted C57BL/6J mouse assessed per gram of tissue at 0.4 to 5.5 MBq, iv after 0.25 hrs by gamma counter; type: ADME, organism-based; conditions: in vivo
# [12] = Biodistribution in tumor of mouse B16F0 cells implanted C57BL/6J mouse assessed per gram of tissue at 0.4 to 5.5 MBq, iv after 1 hr by gamma counter; type: ADME, organism-based, Neoplasm; conditions: in vivo
# Intestine [13] = test: Biodistribution in intestine of mouse B16F0 cells implanted C57BL/6J mouse assessed per gram of tissue at 0.4 to 5.5 MBq, iv after 3 hrs by gamma counter; type: ADME, organism-based; conditions: in vivo
# [14] = Biodistribution in eye of mouse B16F0 cells implanted C57BL/6J mouse assessed per gram of tissue at 0.4 to 5.5 MBq, iv after 1 hr by gamma counter; type: ADME, organism-based; conditions: in vivo
# Thyroid gland [15] = test: Biodistribution in thyroid of mouse B16F0 cells implanted C57BL/6J mouse assessed per gram of tissue at 0.4 to 5.5 MBq, iv after 3 hrs by gamma counter; type: ADME, organism-based; conditions: in vivo
# Bone [16] = test: Biodistribution in bone of mouse B16F0 cells implanted C57BL/6J mouse assessed per gram of tissue at 0.4 to 5.5 MBq, iv after 0.25 hrs by gamma counter; type: ADME, organism-based, Bone element; conditions: in vivo
# [17] = Biodistribution in tumor of mouse B16F0 cells implanted C57BL/6J mouse assessed per gram of tissue at 0.4 to 5.5 MBq, iv after 3 hrs by gamma counter; type: ADME, organism-based, Neoplasm; conditions: in vivo
# [18] = Biodistribution in eye of mouse B16F0 cells implanted C57BL/6J mouse assessed per gram of tissue at 0.4 to 5.5 MBq, iv after 6 hrs by gamma counter; type: ADME, organism-based; conditions: in vivo
# Intestine [19] = test: Biodistribution in intestine of mouse B16F0 cells implanted C57BL/6J mouse assessed per gram of tissue at 0.4 to 5.5 MBq, iv after 6 hrs by gamma counter; type: ADME, organism-based; conditions: in vivo
# Lung [20] = test: Biodistribution in lung of mouse B16F0 cells implanted C57BL/6J mouse assessed per gram of tissue at 0.4 to 5.5 MBq, iv after 6 hrs by gamma counter; type: ADME, organism-based; conditions: in vivo
# Thyroid gland [21] = test: Biodistribution in thyroid of mouse B16F0 cells implanted C57BL/6J mouse assessed per gram of tissue at 0.4 to 5.5 MBq, iv after 1 hr by gamma counter; type: ADME, organism-based; conditions: in vivo
# Bone [22] = test: Biodistribution in bone of mouse B16F0 cells implanted C57BL/6J mouse assessed per gram of tissue at 0.4 to 5.5 MBq, iv after 6 hrs by gamma counter; type: ADME, organism-based, Bone element; conditions: in vivo
# Stomach [23] = test: Biodistribution in stomach of mouse B16F0 cells implanted C57BL/6J mouse assessed per gram of tissue at 0.4 to 5.5 MBq, iv after 6 hrs by gamma counter; type: ADME, organism-based; conditions: in vivo
# [24] = Biodistribution in tumor of mouse B16F0 cells implanted C57BL/6J mouse assessed per gram of tissue at 0.4 to 5.5 MBq, iv after 6 hrs by gamma counter; type: ADME, organism-based, Neoplasm; conditions: in vivo
# Stomach [25] = test: Biodistribution in stomach of mouse B16F0 cells implanted C57BL/6J mouse assessed per gram of tissue at 0.4 to 5.5 MBq, iv after 0.25 hrs by gamma counter; type: ADME, organism-based; conditions: in vivo
# Intestine [26] = test: Biodistribution in intestine of mouse B16F0 cells implanted C57BL/6J mouse assessed per gram of tissue at 0.4 to 5.5 MBq, iv after 1 hr by gamma counter; type: ADME, organism-based; conditions: in vivo
# [27] = Lipophilicity, log P at pH 7.5; type: physicochemical; conditions: buffer
# Spleen [28] = test: Biodistribution in spleen of mouse B16F0 cells implanted C57BL/6J mouse assessed per gram of tissue at 0.4 to 5.5 MBq, iv after 3 hrs by gamma counter; type: ADME, organism-based; conditions: in vivo
# Intestine [29] = test: Biodistribution in intestine of mouse B16F0 cells implanted C57BL/6J mouse assessed per gram of tissue at 0.4 to 5.5 MBq, iv after 0.25 hrs by gamma counter; type: ADME, organism-based; conditions: in vivo
# Lung [30] = test: Biodistribution in lung of mouse B16F0 cells implanted C57BL/6J mouse assessed per gram of tissue at 0.4 to 5.5 MBq, iv after 0.25 hrs by gamma counter; type: ADME, organism-based; conditions: in vivo
# [31] = Biodistribution in tumor of mouse B16F0 cells implanted C57BL/6J mouse assessed per gram of tissue at 0.4 to 5.5 MBq, iv after 0.25 hrs by gamma counter; type: ADME, organism-based, Neoplasm; conditions: in vivo
# [32] = Biodistribution in eye of mouse B16F0 cells implanted C57BL/6J mouse assessed per gram of tissue at 0.4 to 5.5 MBq, iv after 3 hrs by gamma counter; type: ADME, organism-based; conditions: in vivo
# Bone [33] = test: Biodistribution in bone of mouse B16F0 cells implanted C57BL/6J mouse assessed per gram of tissue at 0.4 to 5.5 MBq, iv after 3 hrs by gamma counter; type: ADME, organism-based, Bone element; conditions: in vivo
smiles,measurement,setting,value
CCN(CC)CCNC(=O)c1ccnc([18F])c1,Drug uptake,Lung [1],1.8%
same,Drug uptake,Spleen [2],1.3%
same,Drug uptake,Stomach [3],5.3%
same,Drug uptake,Stomach [4],0.82%
same,Drug uptake,Lung [5],0.37%
same,Drug uptake,Thyroid gland [6],1%
same,Drug uptake,Bone [7],1.5%
same,Drug uptake,Spleen [8],10.3%
same,Drug uptake,[9],17.3%
same,Drug uptake,Spleen [10],3.2%
same,Drug uptake,Thyroid gland [11],4.8%
same,Drug uptake,[12],12.2%
same,Drug uptake,Intestine [13],0.72%
same,Drug uptake,[14],23.7%
same,Drug uptake,Thyroid gland [15],1.5%
same,Drug uptake,Bone [16],4%
same,Drug uptake,[17],8.8%
same,Drug uptake,[18],16.5%
same,Drug uptake,Intestine [19],0.23%
same,Drug uptake,Lung [20],0.14%
same,Drug uptake,Thyroid gland [21],2.2%
same,Drug uptake,Bone [22],0.43%
same,Drug uptake,Stomach [23],0.3%
same,Drug uptake,[24],7.2%
same,Drug uptake,Stomach [25],13.2%
same,Drug uptake,Intestine [26],2.9%
same,logD,[27],1.22
same,Drug uptake,Spleen [28],2.3%
same,Drug uptake,Intestine [29],7%
same,Drug uptake,Lung [30],5.7%
same,Drug uptake,[31],7%
same,Drug uptake,[32],18.8%
same,Drug uptake,Bone [33],0.77%
